# Assay results from patent US11453697B1, “Cyclic di-nucleotide compounds as sting agonists” (Merck Sharp & Dohme Corp., priority 2015, dated 2022).
# Where two headings read alike, the source gives them in different places.
# Legend:
# full-length HAQ STING = full-length HAQ STING (Homo sapiens (Human), UniProt Q86WV6, G230A/H232R/R293Q/R71H); assay: 3H-cGAMP filtration binding assay (HAQ STING); settings: competition with tritiated cGAMP, HAQ STING membrane
# Summary of the method: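 Competition binding of compounds against 8 nM [3H]cGAMP working stock on Hi-Five cell membranes overexpressing full-length HAQ STING; compound and membrane preincubated 60 min at RT before ligand addition. Bound radioactivity read by filtration and scintillation counting; percent activity normalized to controls, EC50 from 4-parameter fit.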
# [1] = test system: IFN-β secretion in THP1 cells; assay: IFN-β secretion in THP1 cell culture (5 h); type: cell-based, human
# Summary of the method: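 THP1 cells incubated with compound for 5 h at 37 °C, 5% CO2, and secreted IFN-β in supernatant quantified by AlphaLISA. Percent effect normalised to 30 uM cGAMP positive control and 0.3% DMSO. EC50 from 4-parameter fit.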
# [2] = read-out: EC50 (nM), 3H-cGAMP filtration binding assay for HAQ STING
# [3] = IFN-β secretion in THP1 cell culture, 5 h, compound at 30 μM, percent activation relative to 2′3′-cGAMP
# Sequence of full-length HAQ STING (Q86WV6 other isoform, or with tags, fused parts or gaps, stated change not applied): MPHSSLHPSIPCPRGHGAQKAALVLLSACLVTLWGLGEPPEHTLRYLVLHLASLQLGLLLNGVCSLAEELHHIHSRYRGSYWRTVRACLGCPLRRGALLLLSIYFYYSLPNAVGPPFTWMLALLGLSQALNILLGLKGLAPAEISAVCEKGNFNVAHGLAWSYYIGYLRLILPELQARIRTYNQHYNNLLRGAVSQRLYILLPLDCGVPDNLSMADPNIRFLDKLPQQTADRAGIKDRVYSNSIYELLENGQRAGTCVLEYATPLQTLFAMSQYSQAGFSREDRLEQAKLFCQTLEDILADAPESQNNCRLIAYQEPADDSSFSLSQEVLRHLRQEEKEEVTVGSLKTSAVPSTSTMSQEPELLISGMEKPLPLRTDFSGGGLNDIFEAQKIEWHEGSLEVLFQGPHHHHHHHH
SMILES,EC50 (full-length HAQ STING; [2]) [nM],"% Effect at 30 μM relative to 2′3′-cGAMP [1, 3] [%]","EC50 (full-length HAQ STING; EC50 (nM), 3H-cGAMP filtration binding assay for HAQ STING) [nM]",% Effect at 30 μM relative to 2′3′-cGAMP [1] [%]
"Nc1nc2c(ncn2[C@@H]2O[C@@H]3COP(O)(=S)O[C@H]4C[C@H](n5cnc6c(=O)[nH]cnc65)O[C@@H]4COP(O)(=S)O[C@@H]2[C@@H]3F)c(=O)[nH]1 (single isomer, unassigned) [Example 306]",,,3.6,153
"Nc1nc2c(ncn2[C@@H]2O[C@@H]3COP(=O)(O)O[C@H]4[C@H](F)[C@H](n5cnc6c(=O)[nH]cnc65)O[C@@H]4COP(=O)(O)O[C@@H]2[C@@H]3F)c(=O)[nH]1 [Example 315, 2-amino-9-[(5R,7R,8S,12aR,14R,15S,15aR,16R)-15,16-difluoro-2,10-dihydroxy-2,10-dioxido-14-(6-oxo-1,6-dihydro-9H-purin-9-yl)octahydro-12H-5,8-methanofuro [3,2-l][1,3,6,9,11,2,10]pentaoxadiphosphacyclotetradecin-7-yl]-1,9-dihydro-6H-purin-6-one]",49.9,92,,
"Nc1nc2c(ncn2[C@@H]2O[C@@H]3COP(=O)(O)O[C@H]4[C@@H](O)[C@H](c5cnn6c(N)ncnc56)O[C@@H]4COP(=O)(O)O[C@@H]2[C@@H]3O)c(=O)[nH]1 [Example 54, 2-amino-9-[(5R,7R,8R,12aR,14S,15S,15aS,16R)-14-(4-aminopyrazolo[1,5-a][1,3,5]triazin-8-yl)-2,10,15,16-tetrahydroxy-2,10-dioxidooctahydro-12H-5,8-methanofuro[3,2-l][1,3,6,9,11,2,10]pentaoxadiphosphacyclotetradecin-7-yl]-1,9-dihydro-6H-purin-6-one]",< 1,,,83
"CO[C@H]1[C@H]2OP(=O)(O)OC[C@H]3O[C@@H](n4cnc5c(O)ncnc54)[C@H](O)[C@@H]3OP(=O)(O)OC[C@H]1O[C@H]2n1cnc2c(=O)[nH]c(N)nc21 [Example 301, 2-amino-9-[(5R,7R,8R,12aR,14R,15R,15aS,16R)-2,10,15-trihydroxy-14-(6-hydroxy-9H-purin-9-yl)-16-methoxy-2,10-dioxidooctahydro-12H-5,8-methanofuro[3,2-l][1,3,6,9,11,2,10]pentaoxadiphosphacyclotetradecin-7-yl]-1,9-dihydro-6H-purin-6-one]",4.8,107,,
"Nc1nc2c(ncn2[C@@H]2O[C@@H]3COP(=O)(O)O[C@H]4[C@@H](O)[C@H](n5nnc6c(N)ncnc65)O[C@@H]4COP(=O)(O)O[C@@H]2[C@@H]3O)c(=O)[nH]1 [Example 55, 2-amino-9-[(5R,7R,8R,12aR,14R,15R,15aS,16R)-14-(7-amino-3H-[1,2,3]triazolo[4,5-d]pyrimidin-3-yl)-2,10,15,16-tetrahydroxy-2,10-dioxidooctahydro-12H-5,8-methanofuro[3,2-l][1,3,6,9,11,2,10]pentaoxadiphosphacyclotetradecin-7-yl]-1,9-dihydro-6H-purin-6-one]",55.3,83,,
"Nc1ncnc2c1ccn2[C@@H]1O[C@@H]2COP(=O)(O)O[C@@H]3[C@H](O)[C@@H](COP(=O)(O)O[C@H]2[C@H]1O)O[C@H]3n1cnc2c(=O)[nH]cnc21 [Example 35, 9-[(5R,7R,8R,12aR,14R,15R,15aS,16R)-14-(4-amino-7H-pyrrolo[2,3-d]pyrimidin-7-yl)-2,10,15,16-tetrahydroxy-2,10-dioxidooctahydro-12H-5,8-methanofuro[3,2-l][1,3,6,9,11,2,10]pentaoxadiphosphacyclotetradecin-7-yl]-1,9-dihydro-6H-purin-6-one]",7.9,51,,
"Nc1nc2c(ncn2[C@@H]2O[C@@H]3COP(=O)(O)O[C@H]4[C@H](Cl)[C@H](n5cnc6c(=O)[nH]cnc65)O[C@@H]4COP(=O)(O)O[C@@H]2[C@@H]3O)c(=O)[nH]1 [Example 322, 2-amino-9-[(5R,7R,8R,12aR,14R, 15S,15aR,16R)-15-chloro-2,10,16-trihydroxy-2,10-dioxido-14-(6-oxo-1,6-dihydro-9H-purin-9-yl)octahydro-12H-5,8-methanofuro[3,2-l][1,3,6,9,11,2,10]pentaoxadiphosphacyclotetradecin-7-yl]-1,9-dihydro-6H-purin-6-one]",68.8,41,,
"Nc1nc2c(ncn2[C@@H]2S[C@@H]3COP(=O)(O)OC4C(O)[C@H](n5cnc6c(N)ncnc65)O[C@@H]4COP(=O)(O)OC2C3O)c(=O)[nH]1 (stereo in doubt) [Example 11, (5R,7R,8R,12aR,14R,15R,15aS,16S)-7-(2-amino-6-oxo-1,6-dihydro-9H-purin-9-yl)-14-(6-amino-9H-purin-9-yl)-15,16-dihydroxyoctahydro-12H-5,8-methanofuro[3,2-l][1,3,9,11,6,2,10] tetraoxathiadiphosphacyclotetradecine-2,10-diolate 2,10-dioxide]",1.2,169,,

# Continued by falling EC50 (full-length HAQ STING; [2]), values first:
EC50 (full-length HAQ STING; [2]) [nM],SMILES,"% Effect at 30 μM relative to 2′3′-cGAMP [1, 3] [%]","EC50 (full-length HAQ STING; EC50 (nM), 3H-cGAMP filtration binding assay for HAQ STING) [nM]",% Effect at 30 μM relative to 2′3′-cGAMP [1] [%]
739,"Nc1nc2c(ncn2[C@@H]2O[C@@H]3COP(=O)(S)O[C@H]4[C@H](F)[C@H](n5nnc6c(N)ncnc65)O[C@@H]4COP(=O)(S)O[C@@H]2C3)c(=O)[nH]1 (stereo partly drawn) [Example 138, 2-amino-9-[(5S,7R,8R,12aR,14R,15S,15aR)-14-(7-amino-3H-[1,2,3]triazolo[4,5-d]pyrimidin-3-yl)-15-fluoro-2,10-dioxido-2,10-disulfanyloctahydro-12H-5,8-methanofuro[3,2-l] [1,3,6,9,11,2,10]pentaoxadiphosphacyclotetra-decin-7-yl]-1,9-dihydro-6H-purin-6-one]",51,,
161,"Nc1nc2c(ncn2[C@@H]2O[C@@H]3COP(=O)(S)O[C@H]4[C@@H](O)[C@H](n5ccc6c(N)ncnc65)O[C@@H]4COP(=O)(S)O[C@@H]2C3)c(=O)[nH]1 (single isomer, unassigned) [Example 77]",39,,
117,"Nc1ncnc2c1ncn2[C@@H]1O[C@@H]2COP(=O)(O)O[C@@H]3[C@H](O)[C@@H](COP(=O)(O)O[C@H]2[C@H]1O)O[C@H]3n1ncc2c(=O)[nH]cnc21 [Example 66, 1-[(5R,7R,8R,12aR,14R,15R,15aS,16R)-14-(6-amino-9H-purin-9-yl)-2,10,15,16-tetrahydroxy-2,10-dioxidooctahydro-12H-5,8-methanofuro[3,2-l][1,3,6,9,11,2,10]pentaoxadiphosphacyclotetradecin-7-yl]-1,5-dihydro-4H-pyrazolo[3,4-d]pyrimidin-4-one]",54,,
91,"Nc1nc2c(ccn2[C@@H]2O[C@@H]3COP(=O)(O)O[C@H]4[C@@H](O)[C@H](n5cnc6c(N)ncnc65)O[C@@H]4COP(=O)(O)O[C@@H]2[C@@H]3O)c(=O)[nH]1 [Example 30, 2-amino-7-[(5R,7R,8R,12aR,14R,15R,15aS,16R)-14-(6-amino-9H-purin-9-yl)-2,10,15,16-tetrahydroxy-2,10-dioxidooctahydro-12H-5,8-methanofuro[3,2-l][1,3,6,9,11,2,10]pentaoxadiphosphacyclotetradecin-7-yl]-3,7-dihydro-4H-pyrrolo[2,3-d] pyrimidin-4-one]",131,,
6.4,"Nc1ncnc2c1ccn2[C@@H]1O[C@@H]2COP(=O)(O)O[C@@H]3C[C@@H](COP(=O)(O)O[C@H]2[C@H]1O)O[C@H]3n1cnc2c(=O)[nH]cnc21 [Example 67, 9-[(5S,7R,8R,12aR,14R,15R,15aS)-14-(4-amino-7H-pyrrolo[2,3-d]pyrimidin-7-yl)-2,10,15-trihydroxy-2,10-dioxidooctahydro-12H-5,8-methanofuro [3,2-l][1,3,6,9,11,2,10]pentaoxadiphosphacyclotetradecin-7-yl]-1,9-dihydro-6H-purin-6-one]",111,,
2.6,"Nc1nc2c(ncn2[C@@H]2O[C@@H]3COP(=O)(O)O[C@H]4[C@@H](O)[C@H](n5cnc6c(N)ncnc65)O[C@@H]4COP(=O)(O)O[C@@H]2[C@@H]3N)c(=O)[nH]1 [Example 75, 2-Amino-9-[(5S,7R,8R,12aR,14R,15R,15aS,16R)-16-amino-14-(6-amino-9H-purin-9-yl)-2,10,15-trihydroxy-2,10-dioxidooctahydro-12H-5,8-methanofuro[3,2-l][1,3,6,9,11,2,10]pentaoxadiphosphacyclotetradecin-7-yl]-1,9-dihydro-6H-purin-6-one]",96,,
2.5,"Nc1nc2c(ncn2[C@@H]2O[C@@H]3CO[P@@](=O)(S)O[C@H]4[C@@H](O)[C@H](n5cnc6c(=O)[nH]cnc65)O[C@@H]4CO[P@@](=O)(S)O[C@@H]2C3)c(=O)[nH]1 [Example 290, 2-amino-9-[(2R,5S,7R,8R,10R,12aR,14R,15R,15aS)-15-hydroxy-2,10-dioxido-14-(6-oxo-1,6-dihydro-9H-purin-9-yl)-2,10-disulfanyloctahydro-12H-5,8-methanofuro[3,2-l][1,3,6,9,11,2,10]pentaoxadiphosphacyclotetradecin-7-yl]-1,9-dihydro-6H-purin-6-one]",90,,
1.9,"Nc1nc2c(ncn2[C@@H]2O[C@@H]3COP(=O)(O)O[C@H]4[C@@H](F)[C@H](n5cnc6c(=O)[nH]cnc65)O[C@@H]4COP(=O)(O)O[C@@H]2[C@@H]3O)c(=O)[nH]1 [Example 293, 2-amino-9-[(5R,7R,8R,12aR,14R,15R,15aR,16R)-15-fluoro-2,10,16-trihydroxy-2,10-dioxido-14-(6-oxo-1,6-dihydro-9H-purin-9-yl)octahydro-12H-5,8-methanofuro[3,2-l] [1,3,6,9,11,2,10]pentaoxadiphosphacyclo-tetradecin-7-yl]-1,9-dihydro-6H-purin-6-one]",86,,
